In patent US20210032257A1, “(E)-1-(4-(DIMETHYLAMINO)BUT-2-ENOYL)PYRROLIDIN-3-YL 4-((3-ISOPROPYL-5-METHYLPYRAZOLO[1,5-A]PYRIMIDIN-7-YL)AMINO)PIPERIDINE-1-CARBOXYLATE FOR INHIBITING CDK7” (Eli Lilly and Company, priority 2017, published 2021):

Legend:
Assay in all cases: Biomarker study proliferation (CellTiter-Glo)
Type in all cases: cell-based
[1] = tested on: AZ521
In short: (§1)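 Seeding density 5000 cells/well; overnight recovery; compound 10-pt, 1:3; 7 d, 37 °C, 5% CO2; CellTiter-Glo, 15 min RT; luminescence. Ctrl: staurosporine 5 μM final.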

[2] = tested on: GL261
In short: as §1

[3] = tested on: HCT8
In short: as §1

[4] = tested on: HEPG2
In short: as §1

[5] = tested on: IGROV1
In short: as §1

[6] = tested on: KP4
In short: as §1

[7] = tested on: LS411N
In short: as §1

[8] = tested on: MDAMB231
In short: as §1

[9] = tested on: MKN7
In short: as §1

[10] = tested on: NCIH1666
In short: as §1

[11] = tested on: NCIH2081
In short: as §1

[12] = tested on: NCIH358
In short: as §1

[13] = tested on: NCIH526
In short: as §1

[14] = tested on: SNU1196
In short: as §1

[15] = tested on: SNU423
In short: as §1

[16] = tested on: SW480
In short: as §1

[17] = tested on: SW48
In short: as §1

[18] = tested on: SW900
In short: as §1

Question: Cc1cc(NC2CCN(C(=O)O[C@H]3CCN(C(=O)/C=C/CN(C)C)C3)CC2)n2ncc(C(C)C)c2n1 [Example 1, [(3S)-1-[(E)-4-(dimethylamino)but-2-enoyl]pyrrolidin-3-yl] 4-[(3-isopropyl-5-methyl-pyrazolo[1,5-a]pyrimidin-7-yl)amino]piperidine-1-carboxylate] was tested. Which “Anti-proliferation effect % Inh.” value ([1]; AZ521, STOMACH, 7 days) did it give?
Answer: 76%

Question: What about the “Anti-proliferation effect Outcome” value ([1]; AZ521, STOMACH, 7 days) of the same molecule?
Answer: Cytotoxic (cytotoxic (IC50<1 μM and % inhibition ≥70%))

Question: And the IC50 ([1]; Homo sapiens, AZ-521, 168 h, read-out: Anti-proliferation effect IC50)?
Answer: 36 nM

Question: And the “Anti-proliferation effect % Inh.” value ([2]; GL261, BRAIN, 7 days)?
Answer: 85%

Question: And the “Anti-proliferation effect Outcome” value ([2]; GL261, BRAIN, 7 days)?
Answer: Cytotoxic (cytotoxic (IC50<1 μM and % inhibition ≥70%))

Question: And the IC50 ([2]; Mus musculus, GL261, 168 h, read-out: Anti-proliferation effect IC50)?
Answer: 38 nM

Question: And the “Anti-proliferation effect % Inh.” value ([3]; HCT8, INTESTINE, 7 days)?
Answer: 3%

Question: And the “Anti-proliferation effect Outcome” value ([3]; HCT8, INTESTINE, 7 days)?
Answer: Cytostatic (cytostatic (IC50<1 μM and % inhibition <70%))

Question: What about the IC50 ([3]; Homo sapiens, HCT-8, 168 h, read-out: Anti-proliferation effect IC50) of the same molecule?
Answer: 981 nM

Question: And the “Anti-proliferation effect % Inh.” value ([4]; HEPG2, LIVER, 7 days)?
Answer: 78%

Question: What about the “Anti-proliferation effect Outcome” value ([4]; HEPG2, LIVER, 7 days) of the same molecule?
Answer: Cytotoxic (cytotoxic (IC50<1 μM and % inhibition ≥70%))

Question: And the IC50 ([4]; Homo sapiens, HepG2, 168 h, read-out: Anti-proliferation effect IC50)?
Answer: 28 nM

Question: And the IC50 ([5]; Homo sapiens, IGROV-1, 168 h, read-out: Anti-proliferation effect IC50)?
Answer: 72 nM

Question: What about the “Anti-proliferation effect % Inh.” value ([5]; IGROV1, OVARY, 7 days) of the same molecule?
Answer: 70%

Question: What about the “Anti-proliferation effect Outcome” value ([5]; IGROV1, OVARY, 7 days) of the same molecule?
Answer: Cytotoxic (cytotoxic (IC50<1 μM and % inhibition ≥70%))

Question: And the IC50 ([6]; Homo sapiens, KP-4, 168 h, read-out: Anti-proliferation effect IC50)?
Answer: 36 nM

Question: And the “Anti-proliferation effect % Inh.” value ([6]; KP4, PANCREAS, 7 days)?
Answer: 65%

Question: What about the “Anti-proliferation effect Outcome” value ([6]; KP4, PANCREAS, 7 days) of the same molecule?
Answer: Cytostatic (cytostatic (IC50<1 μM and % inhibition <70%))

Question: And the IC50 ([7]; Homo sapiens, LS-411N, 168 h, read-out: Anti-proliferation effect IC50)?
Answer: 1000 nM

Question: What about the “Anti-proliferation effect % Inh.” value ([7]; LS411N, INTESTINE, 7 days) of the same molecule?
Answer: 45%

Question: And the “Anti-proliferation effect Outcome” value ([7]; LS411N, INTESTINE, 7 days)?
Answer: Insensitive (insensitive (IC50≥1 μM))

Question: What about the IC50 ([8]; Homo sapiens, MDA-MB-231, 168 h, read-out: Anti-proliferation effect IC50) of the same molecule?
Answer: 2820 nM

Question: What about the “Anti-proliferation effect % Inh.” value ([8]; MDAMB231, BREAST, 7 days) of the same molecule?
Answer: 23%

Question: And the “Anti-proliferation effect Outcome” value ([8]; MDAMB231, BREAST, 7 days)?
Answer: Insensitive (insensitive (IC50≥1 μM))

Question: What about the IC50 ([9]; Homo sapiens, MKN-7, 168 h, read-out: Anti-proliferation effect IC50) of the same molecule?
Answer: > 10000 nM

Question: And the “Anti-proliferation effect % Inh.” value ([9]; MKN7, STOMACH, 7 days)?
Answer: 39%

Question: What about the “Anti-proliferation effect Outcome” value ([9]; MKN7, STOMACH, 7 days) of the same molecule?
Answer: Insensitive (insensitive (IC50≥1 μM))

Question: What about the IC50 ([10]; Homo sapiens, NCI-H1666, 168 h, read-out: Anti-proliferation effect IC50) of the same molecule?
Answer: 161 nM

Question: What about the “Anti-proliferation effect % Inh.” value ([10]; NCIH1666, LUNG, 7 days) of the same molecule?
Answer: 59%

Question: And the “Anti-proliferation effect Outcome” value ([10]; NCIH1666, LUNG, 7 days)?
Answer: Cytostatic (cytostatic (IC50<1 μM and % inhibition <70%))

Question: What about the IC50 ([11]; Homo sapiens, NCI-H2081, 168 h, read-out: Anti-proliferation effect IC50) of the same molecule?
Answer: 442 nM

Question: What about the “Anti-proliferation effect % Inh.” value ([11]; NCIH2081, LUNG, 7 days) of the same molecule?
Answer: 44%

Question: What about the “Anti-proliferation effect Outcome” value ([11]; NCIH2081, LUNG, 7 days) of the same molecule?
Answer: Cytostatic (cytostatic (IC50<1 μM and % inhibition <70%))

Question: And the IC50 ([12]; Homo sapiens, NCI-H358, 168 h, read-out: Anti-proliferation effect IC50)?
Answer: 42 nM

Question: And the “Anti-proliferation effect % Inh.” value ([12]; NCIH358, LUNG, 7 days)?
Answer: 93%

Question: What about the “Anti-proliferation effect Outcome” value ([12]; NCIH358, LUNG, 7 days) of the same molecule?
Answer: Cytotoxic (cytotoxic (IC50<1 μM and % inhibition ≥70%))

Question: And the IC50 ([13]; Homo sapiens, NCI-H526, 168 h, read-out: Anti-proliferation effect IC50)?
Answer: 18 nM

Question: What about the “Anti-proliferation effect % Inh.” value ([13]; NCIH526, LUNG, 7 days) of the same molecule?
Answer: 94%

Question: What about the “Anti-proliferation effect Outcome” value ([13]; NCIH526, LUNG, 7 days) of the same molecule?
Answer: Cytotoxic (cytotoxic (IC50<1 μM and % inhibition ≥70%))

Question: What about the IC50 ([14]; 168 h, read-out: Anti-proliferation effect IC50) of the same molecule?
Answer: 43 nM

Question: What about the “Anti-proliferation effect % Inh.” value ([14]; SNU1196, BILIARY, 7 days) of the same molecule?
Answer: 68%

Question: What about the “Anti-proliferation effect Outcome” value ([14]; SNU1196, BILIARY, 7 days) of the same molecule?
Answer: Cytostatic (cytostatic (IC50<1 μM and % inhibition <70%))

Question: What about the IC50 ([15]; Homo sapiens, SNU-423, 168 h, read-out: Anti-proliferation effect IC50) of the same molecule?
Answer: > 10000 nM

Question: What about the “Anti-proliferation effect % Inh.” value ([15]; SNU423, LIVER, 7 days) of the same molecule?
Answer: 40%

Question: And the “Anti-proliferation effect Outcome” value ([15]; SNU423, LIVER, 7 days)?
Answer: Insensitive (insensitive (IC50≥1 μM))

Question: What about the IC50 ([16]; Homo sapiens, SW480, 168 h, read-out: Anti-proliferation effect IC50) of the same molecule?
Answer: 36 nM

Question: What about the “Anti-proliferation effect % Inh.” value ([16]; SW480, INTESTINE, 7 days) of the same molecule?
Answer: 90%

Question: And the “Anti-proliferation effect Outcome” value ([16]; SW480, INTESTINE, 7 days)?
Answer: Cytotoxic (cytotoxic (IC50<1 μM and % inhibition ≥70%))

Question: And the IC50 ([17]; Homo sapiens, SW48, 168 h, read-out: Anti-proliferation effect IC50)?
Answer: 5 nM

Question: And the “Anti-proliferation effect % Inh.” value ([17]; SW48, INTESTINE, 7 days)?
Answer: 89%

Question: And the “Anti-proliferation effect Outcome” value ([17]; SW48, INTESTINE, 7 days)?
Answer: Cytotoxic (cytotoxic (IC50<1 μM and % inhibition ≥70%))

Question: And the IC50 ([18]; Homo sapiens, SW900, 168 h, read-out: Anti-proliferation effect IC50)?
Answer: 3810 nM

Question: And the “Anti-proliferation effect % Inh.” value ([18]; SW900, LUNG, 7 days)?
Answer: 13%

Question: What about the “Anti-proliferation effect Outcome” value ([18]; SW900, LUNG, 7 days) of the same molecule?
Answer: Insensitive (insensitive (IC50≥1 μM))
